The source of these data is US20190323025A1, “COMPOSITIONS AND METHODS FOR DELIVERY OF MOLECULES TO PLANTS” (BLOOMSBURG UNIVERSITY OF PENNSYLVANIA, priority 2018, published 2019).

For experiment [1], the system named is AvsYS1 avenic acid/Fe+3 transporter. As to the kind of experiment: Yeast growth assay in liquid medium with phytosiderophore/Fe+3 complex as the only available iron, strain DEY1453 transformed with pJKD1 (pYES2/AvsYS1) or pYES2. In kind it is cell-based, Avena sativa. The settings on record: for growth of yeast with transporter (DEY1453:pJKD1, 53K): S. cerevisiae DEY1453:pJKD1 (pYES2/AvsYS1), YNB minimal medium pH 7.5, BPDS, iron only as Fe+3 complexed with the substance. An excerpt:
AvsYS1 (Genbank FJ477297.1) was isolated using 5′RACE from the roots of iron starved oats (Avena sativa). Primers were designed by comparing one functionally confirmed phytosiderophore/Fe^+3 transporter (HvYS1) and other iron transport proteins. After obtaining a full-length clone, we subcloned the gene (AvsYS1) into a yeast galactose inducible expression vector (pYES2). The resultant plasmid was designated pJKD1. We obtained a yeast strain that lacks the ability to take up ferric iron and transformed it with pYES2 and pJKD1. The transformants were grown under identical conditions in which the only iron available was in the Fe^+3/avenic acid complex.
We engineered the AvsYS1 gene into a galactose inducible expression systems vector (pYES2). Our first major result was the functional confirmation of the AvsYS1 gene. We transformed pYES2 and pJKD1 (pYES2/AvsYS1) into a strain of S. cerevisiae (DEY1453) that lacks the ability to take up Fe^3+. In the process, we developed a new assay based on growth in liquid medium. The advantage of this assay over more traditional assays used in yeast-based PS/Fe^+3 assays is that it is quantifiable. Other assays (e.g., Murata, 2006) grow yeast on a solid plate, and qualitative growth of colonies is used. With our assay, we can generate numerical data based on the density as measured by the absorbance at 600 nm. […] Further detail is provided below.
53Y=DEY1453:pYES2 (no transporter) 53K=DEY1453:pJKD1 (pYES2/AvsYS1 [transporter]) DOB—Complete medium, supplemented w/FeSo4, ampicillin 50 YNB-minimal medium, pH7.5, BPDS (ferrous chelator), ampicillin,
Protocols included: 53Y and 53K in DOB+FeSO4, 53Y and 53K in YNB supplemented with Avenic acid; 53Y and 53K supplemented with BPA-1-068B; 53Y and 53K in YNB w/ no supplements; uninoculated YNB; uninoculated DOB.
53Y=DEY1453:pYES2 (no transporter) 53K=DEY1453:pJKD1 (pYES2/AvsYS1 [transporter]) DOB—Complete medium, supplemented w/FeSo4, ampicillin 50 YNB-minimal medium, pH7.5, BPDS (ferrous chelator), ampicillin, Ø=no supplementation
Protocols included: 53Y and 53K, supplemented with Avenic acid, 53Y and 53K supplemented with BPA-1-068B, 53Y and 53K in YNB w/ no supplements.
3Y=DEY1453:pYES2 (no transporter) 3K=DEY1453:pJKD1 (pYES2/AvsYS1 [transporter]) Strains grown in YNB/Gal, pH 7.5, Amp50, Avenic acid: Fe^+3, 5:1
Another interesting observation was made in relation to growth of the DEY1453:pJKD1 using one of the analogs complexed with Fe^+3. […] This was a very significant result because it provided strong (though not dispositive) evidence in support of our Trojan Horse delivery technology.

The test system of experiment [2] is Micro-Tom tomatoes, AvsYS1 transformants (MT*) and untransformed (MT). As to the kind of experiment: Hydroponic growth of Micro-Tom tomatoes under iron limiting conditions with iron provided as FeCl3/avenic acid. The format is in vivo, tomato. The settings on record: Hoagland's solution (-Fe), pH 7.4, 10 μM FeCl3 complexed with 15 μM avenic acid. An excerpt: RNA was isolated from […]. A cDNA (AvsYSl) was isolated and its functionality confirmed as a phytosiderophore/Fe^+3 transporter that mitigates the effects of Iron Deficiency Chlorosis in transgenic Micro-Tom™ tomatoes when the nutrient medium is supplemented with the oat phytosiderophore, avenic acid. […] Final confirmation of the AvsYS1 transporter's functionality was obtained by comparing Micro-Tom™: AvsYS1 (MT*) transformants with non-transgenic Micro-Tom™ grown hydroponically under iron limiting conditions. (See, e.g., Shikata et al. (2016) “Micro-Tom tomato as an alternative plant model system: mutant collection and efficient transformation” Methods Mol. Biol. 1363:47-55.) Samples were grown in Hoagland's solution (—Fe) at pH 7.4. Iron was provided as 10 μM FeCl3/15 μM avenic acid. Tomatoes normally optimally grow at pH 5.6-6.8. Sample 3 was labelled MT*. This was a Micro-Tom™ variety was transformed with Fe+3/avenic acid transporter isolated from roots of iron starved oats. Sample 4 was an untransformed Micro-Tom™ (MT) plant.
MT* tomatoes grew robustly in Hoagland's solution at a pH of 7.4 supplemented with iron was provided at 10 μM FeCl3 complexed with 15 μM avenic acid.

Structures are written as SMILES.

With `O=C(CC(NCCC(NCC[C@H](O)C(=O)O)C(=O)O)C(=O)O)OCc1ccccc1` (stereo partly drawn) [BPA-1-068B], the “growth of yeast with transporter (DEY1453:pJKD1, 53K)” value (shortened to “growth of yeast with transporter”) is reported as “able to grow” in experiment [1] and “impressive” in experiment [1] (listed as drawing 7). For the same compound, the “growth rate of DEY1453:pJKD1” value in experiment [1] (ferric iron supplied with the analog, compared to DEY1453:pYES2 controls) is reported as “slower, but undeniably robust”. For the same compound, the “uptake by the avenic acid transporter” value in experiment [1] (yeast, in the presence of iron) was “able to be taken up”.
For the compound `O=C(O)[C@H](CCO)NCC[C@H](NCC[C@H](O)C(=O)O)C(=O)O` [avenic acid, Avenic Acid], the “growth of yeast with transporter” value in experiment [1] was “able to grow vigorously”. Besides, the “growth of yeast without transporter (DEY1453:pYES2, 53Y)” value in experiment [1] (S. cerevisiae DEY1453:pYES2 (no transporter), iron only as Fe+3/avenic acid complex) was “could not”. For the same compound, the “growth of MT* (AvsYS1 transformed) tomatoes” value in experiment [2] (16 days) is reported as “grew robustly”. In addition, the “iron deficiency chlorosis in untransformed (MT) tomatoes” value in experiment [2] (after 16 days) is listed as “Iron deficiency chlorosis was observed in new leaves”.
Consider `O=C(O)C(CO)NCCC(NCC[C@H](O)C(=O)O)C(=O)O` (stereo partly drawn) [MGS-2-128BF], for which the “growth of yeast with transporter” value in experiment [1] is recorded as “supported growth as well as avenic acid”.
